Measurements as given in patent US20240108617A1, “AN INHALABLE DRY POWDER COMPOSITION FOR PULMONARY DISEASES” (GLENMARK SPECIALTY S.A., priority 2019, published 2024).
Values belong to the compound of their own block, whether it stands above or below them.

Columns and labels:
[1] = Particle size distribution, Malvern Mastersizer 2000S, wet dispersion; type: physicochemical; details: PSD retested results
Protocol: The particle size distribution studies were performed using Malvern Mastersizer 2000S using wet dispersion method. A sample of about […] of compound (I) was transferred in a beaker, and 2-3 drops of nonidet P-40 and 4-5 drops of water were added to the sample in beaker, and 25-30 ml of water was added and sonicated for 180 seconds with continuous stirring, and the dispersion/solution of compound (I) was added in sample handling unit of Hydro 20000S. The particle size measurement was done using Malvern Mastersizer 2000S.

[2] = test system: IL-17; test: Ex-vivo IL-17 inhibition from bronchoalveolar lavage (BAL) cells from COPD patients; type: cell-based, human; details: for IC50: stimulated BAL cells from COPD patients, read-out: IC50, IL-17 release
Protocol: The test compound was prepared by 10 mM stock of Compound (I) was prepared in 100% DMSO. The saline was prepared by 0.85 gm of NaCl weighted and dissolved in 100 mL distilled water and adjusted the pH 7.0 to pH 7.4. It was then filter sterilized.
Flexible fiber optic bronchoscopy was performed after valid consent and lignocaine nebulization. Patient was given 2 mg of IV midazolam and monitored under pulse oximetry and cardiac monitor. BAL fluid was collected with repeated aspirations of saline preferably from middle lobe.
BALF was passed through cell strainer to remove debris and mucus. BAL cells were isolated from BALf by centrifugation at 800 rpm for 10 min.
BAL cells were seeded at a density of 1×10^5 cells-2×10^5 cells/well in a 96 well plate coated with Anti-human CD3 antibody (10 μg/mL) and anti-human CD2 antibody (2 μg/mL). The plate was shaken gently and cells incubated for 5-10 minutes in an incubator with 37° C. and 5% CO2 to acclimatize. • 1. Cells were pre-incubated for 60 minutes at 37° C. with serial dilutions of Compound (I). This was followed by the addition of Anti-human CD28 antibody (2 μg/mL). • 2. Cells were incubated for 48-72 h in the incubator at 37° C. with 5% CO2. • 3. The plates were spun at 1200 rpm at 4° C. for 12 minutes, supernatant collected and used for IL17 estimation by ELISA.
(§1) Calculations: IL17 cytokine concentration in the supernatant was determined using linear regression from the standard graph and subsequently multiplied with respective dilution factors. Fold response (FR) was calculated as pg/ml of hIL17 in sample (treated) wells over pg/ml of hIL17 in Basal wells.
Percent Inhibition for each set treated with test compound was calculated by using the formula Percent Inhibition={100−(pg/mL of test compound/pg/mL of induced×100)} and IC50 values were calculated from concentration response curves by nonlinear regression analysis using GraphPad Prism software.

[3] = test system: IL-17; test: Ex-vivo IL-17 inhibition from peripheral blood (whole blood) from COPD patients; type: cell-based; details: Homo sapiens
Protocol: • 1. ˜8 mL whole blood was collected per patient. • 2. Human whole blood was diluted 1:1 with 0.85% NaCl. • 3. Diluted blood was loaded on a 96 well plate. Blood was pre-incubated for 60 minutes at 37° C. with serial dilutions of Compound (I). • 4. It was then transferred to 96 well plate coated with Anti-human CD3 antibody (final concentration—10 μg/mL). This was followed by the addition of Anti-human CD28 antibody (2 μg/mL). • 5. Cells were incubated for 48 h in the incubator at 37° C. with 5% CO2. The plates were spun at 1200 rpm at 4° C. for 12 minutes, supernatant collected and used for IL17 estimation by ELISA.
as §1
Percent Inhibition for each set treated with test compound was calculated by using the formula
Percent Inhibition={100−(pg/mL of test compound/pg/mL of induced×100)}
IC50 values were calculated from concentration response curves by nonlinear regression analysis using GraphPad Prism software.

[4] = Compatibility with inhalation grades of lactose monohydrate; type: physicochemical; details: Respitose ML006, Respitose SV010, Lactohale 201, Lactohale 200, Inhalac 230, Inhalac 70
Description: It was observed that compound (I) is compatible with different commercially available inhalation grades of lactose monohydrate including Respitose ML006, Respitose SV010, Lactohale 201, Lactohale 200, Inhalac 230, Inhalac 70. Lactose Monohydrate is selected as a diluent for compound (I) (micronized) with the particle size d90 of ≤5 microns.

[5] = particle size data during initial development, listed as C
[6] = particle size data during intermediate development, listed as E
[7] = particle size data during initial development, listed as A
[8] = particle size data during intermediate development, listed as F
[9] = particle size data during initial development, listed as B
[10] = particle size data during intermediate development, listed as D

SMILES: CCc1ccccc1-c1nccnc1-c1ccc(NC(=O)Cc2ccc(C(F)(F)[C@@H](C)O)cc2)cc1 [API Batch C]
- d10 [1, 5]: 1.128 μm
- d50 [1, 5]: 2.010 μm
- d90 [1, 5]: 3.783 μm

SMILES: CCc1ccccc1-c1nccnc1-c1ccc(NC(=O)Cc2ccc(C(F)(F)C(C)O)cc2)cc1 (stereo in doubt) [Compound (I), 2-{4-[(2S)-1,1-difluoro-2-hydroxypropyl]phenyl}-N-{4-[3-(2-ethylphenyl)pyrazine-2-yl]phenyl}acetamide]
- inhibition of IL17 release ([2]; BAL cells, at an ICmax concentration of 1-3 microns): > 70%
- IC50 ([2]; Homo sapiens): 0.143 µM
- inhibition at 0.0001 µM ([2]; Homo sapiens, COPD-BAL cells, 0.1 nM): 4.97%
- inhibition at 0.001 µM ([2]; Homo sapiens, COPD-BAL cells, 1 nM): 2.39%
- inhibition at 0.003 µM ([2]; Homo sapiens, COPD-BAL cells, 3 nM): 10.9%
- inhibition at 0.01 µM ([2]; Homo sapiens, COPD-BAL cells, 10 nM): 13.9%
- inhibition at 0.03 µM ([2]; Homo sapiens, COPD-BAL cells, 30 nM): 18.7%
- inhibition at 0.1 µM ([2]; Homo sapiens, COPD-BAL cells, 100 nM): 41.4%
- inhibition at 0.3 µM ([2]; Homo sapiens, COPD-BAL cells, 300 nM): 66.8%
- inhibition at 1 µM ([2]; Homo sapiens, COPD-BAL cells, 1 μM): 71.1%
- inhibition at 3 µM ([2]; Homo sapiens, COPD-BAL cells, 3 μM): 76.7%
- inhibition at 6 µM ([2]; Homo sapiens, COPD-BAL cells, 6 μM): 78.8%
- inhibition at 10 µM ([2]; Homo sapiens, COPD-BAL cells, 10 μM): 81.1%
- IC50 [2]: 0.143 µM
- inhibition at 0.0001 µM ([3]; Whole Blood, 0.1 nM, read-out: IL17 A (% Inhibition)): 0.27%
- inhibition at 0.001 µM ([3]; Whole Blood, 1 nM, read-out: IL17 A (% Inhibition)): 5.57%
- inhibition at 0.003 µM ([3]; Whole Blood, 3 nM, read-out: IL17 A (% Inhibition)): 14.9%
- inhibition at 0.01 µM ([3]; Whole Blood, 10 nM, read-out: IL17 A (% Inhibition)): 15.1%
- inhibition at 0.03 µM ([3]; Whole Blood, 30 nM, read-out: IL17 A (% Inhibition)): 27.6%
- inhibition at 0.1 µM ([3]; Whole Blood, 100 nM, read-out: IL17 A (% Inhibition)): 36.8%
- inhibition at 0.3 µM ([3]; Whole Blood, 300 nM, read-out: IL17 A (% Inhibition)): 43.4%
- inhibition at 1 µM ([3]; Whole Blood, 1 uM, read-out: IL17 A (% Inhibition)): 56.9%
- inhibition at 3 µM ([3]; Whole Blood, 3 μM, read-out: IL17 A (% Inhibition)): 65%
- inhibition at 6 µM ([3]; Whole Blood, 6 μM, read-out: IL17 A (% Inhibition)): 69.2%
- inhibition at 10 µM ([3]; Whole Blood, 10 μM, read-out: IL17 A (% Inhibition)): 76.2%
- inhibition at 20 µM ([3]; Whole Blood, 20 μM, read-out: IL17 A (% Inhibition)): 78.8%
- IC50 ([3]; stimulated whole blood from COPD patients, read-out: IC50, IL17 release): 0.282 µM
- compatibility with commercially available inhalation grades of lactose monohydrate [4]: compatible

SMILES: CCc1ccccc1-c1nccnc1-c1ccc(NC(=O)Cc2ccc(C(F)(F)[C@@H](C)O)cc2)cc1 [API Batch E]
- d10 [1, 6]: 1.376 microns
- d50 [1, 6]: 2.591 microns
- d90 [1, 6]: 5.060 microns

SMILES: CCc1ccccc1-c1nccnc1-c1ccc(NC(=O)Cc2ccc(C(F)(F)[C@@H](C)O)cc2)cc1 [API Batch A]
- d10 [1, 7]: 1.222 μm
- d50 [1, 7]: 2.064 μm
- d90 [1, 7]: 3.664 μm

Next, values leading:

- d10 [1, 8]: 1.244 microns
- d50 [1, 8]: 2.383 microns
- d90 [1, 8]: 4.752 microns
SMILES: CCc1ccccc1-c1nccnc1-c1ccc(NC(=O)Cc2ccc(C(F)(F)[C@@H](C)O)cc2)cc1 [API Batch F]

- d10 [1, 9]: 0.106 μm
- d50 [1, 9]: 1.376 μm
- d90 [1, 9]: 3.278 μm
SMILES: CCc1ccccc1-c1nccnc1-c1ccc(NC(=O)Cc2ccc(C(F)(F)[C@@H](C)O)cc2)cc1 [API Batch B]

- d10 [1, 10]: 0.110 microns
- d50 [1, 10]: 1.510 microns
- d90 [1, 10]: 3.638 microns
SMILES: CCc1ccccc1-c1nccnc1-c1ccc(NC(=O)Cc2ccc(C(F)(F)[C@@H](C)O)cc2)cc1 [API Batch D]
